Test: xn = mol fraction of the nth substance listed
Settings: 318.15 K, Liquid, Vibrating tube method

CCCCCCCC [octane] + c1ccccc1
mass density [kg/m3]
Settings	x1 = 0.1097	x1 = 0.2036	x1 = 0.2984	x1 = 0.4069	x1 = 0.5027	x1 = 0.5904	x1 = 0.6989	x1 = 0.7964	x1 = 0.904	x1 = 1
20370 kPa	–	–	–	–	–	744.2	730.7	719.8	709.2	700.7
22390 kPa	837.9	814.1	793.6	773.7	758.2	745.8	732.3	721.4	710.8	702.3
24420 kPa	839.5	815.7	795.3	775.3	759.8	747.4	733.9	723	712.4	703.9
26450 kPa	841	817.3	796.8	776.9	761.4	749	735.5	724.5	713.9	705.4
28470 kPa	842.6	818.8	798.5	778.5	763	750.6	737	726.1	715.4	706.9
29490 kPa	843.3	819.6	799.2	779.2	763.7	751.4	737.8	726.8	716.1	707.6
30500 kPa	844.1	820.4	799.9	780	764.5	752.1	738.5	727.5	716.9	708.3
32530 kPa	845.6	821.9	801.4	781.5	766	753.6	740	729	718.3	709.7
34550 kPa	847.1	823.4	802.9	783	767.5	755.1	741.5	730.5	719.7	711.2
36580 kPa	848.5	824.8	804.4	784.4	768.9	756.5	742.9	731.9	721.1	712.5
38600 kPa	850	826.3	805.8	785.9	770.4	757.9	744.3	733.3	722.5	713.9
39620 kPa	850.7	827	806.5	786.6	771.1	758.6	745	734	723.2	714.6
